US10172915B2, “Methods and compositions for activation of sirtuins with Annexin A1 peptides” (Duke University, priority 2013, dated 2019)
No end group written: not given here.

Legend:
[1] = tested on: ventricular contractile function ex vivo; conditions: cited from earlier work
[2] = tested on: rat coronary ligation models; conditions: cited from earlier work
[3] = tested on: protein lysine acetylation; assay: Protein lysine acetylation in left ventricular myocardial lysates of DHCA rats; type: in vivo, rat; conditions: 60 min DHCA, 6 h reperfusion
Procedure: (§1) FIG. 15. Increased SIRT3 activity with ANXA1sp treatment is associated with reduced protein lysine acetylation in left ventricular myocardial lysates from rats following 60 min DHCA and 6 h reperfusion (panel A). This included deacetylation of MnSOD (known to increase its reactive oxygen species scavenging activity). Acetylated proteins were immunoprecipitated with anti-acetyl lysine antibody, and deacetylated MnSOD levels were assessed in the supernatant via Western blot (panel B). […] Results presented as mean±SD (n=5/group), *P<0.05. anti-Ac-K, acetylated lysine antibody; IP, immuno-precipitation; WB, Western blot; ROS, reactive oxygen species; MnSOD, manganese superoxide dismutase.
(§2) Separate groups of animals underwent 60 minutes of DHCA (18° C.) with a similar treatment design, with animals randomly assigned to sham, CPB/DHCA (Vehicle), DHCA+ANXA1sp (ANXA1sp), or DHCA+scrambled peptide (scrPEP). All rats were subjected to 60 minutes DHCA at 18° C. and received either vehicle (1% DMSO saline), ANXA1sp (total 2 mg/kg), or scrPEP (total 2 mg/kg) iv 1 h before CPB and 1 h after reperfusion (FIG. 10C). Sham operated animals were only cannulated/without CPB/DHCA as baseline control. At 3, 6, and 24 h of post-perfusion, heart and serum samples were harvested. Blood samples were collected and stored at −80° C. until analysis. […]

[4] = tested on: mitochondrial protein lysine-acetylation; assay: Mitochondrial protein lysine acetylation in ARVCs after OGD/reoxygenation; type: cell-based, rat; conditions: ARVCs following OGD/reoxygenation
Procedure: (§3) After 24 h incubation, ARVCs were pre-treated with known concentrations of ANXA1sp or scrPEP in growth medium for 1 h, and subjected to 2 h oxygen-glucose-deprivation (OGD: DMEM no glucose, 85% N2/10% H2/5% CO2) in a OGD station chamber/Anaerobic System (Farma Scientific), followed by reoxygenation with 10 μM ANXA1sp or scrPEP in growth medium for 3, 6, and 24 h in a 37° C. and 5% CO2 growth chamber, respectively.

[5] = tested on: AMP-activated protein kinase (AMPK); assay: AMPK phosphorylation in ARVCs after OGD/reoxygenation; type: cell-based, rat; conditions: 2 h OGD, 3 h reoxygenation
Procedure: as §3
(§4) Proteins were separated by electrophoresis on SDS-PAGE and then transferred onto PVDF-Plus membrane (Millipore). After being blocked with 5% milk, the immunoblots were probed with appropriate antibodies to SIRT3 (Cell Signaling or Abcam), MPP (Santa Cruz), MnSOD, P-AMPK, COXIV, GAPDH (Cell Signaling), and caspase-3 (Cell Signaling, MA) overnight at 4° C. followed by incubation with the corresponding secondary antibodies at room temperature for 1 h. The blots were visualized with the SuperSignal West Dura Extended Duration Substrate (Thermo Scientific) by a gel imaging system (Alpha Innotech).

[6] = tested on: NF-κB p65 subunit; assay: NF-κB p65 acetylation and NF-κB activity in DHCA rats; type: in vivo, rat
Procedure: FIG. 18. Increased SIRT1 expression with ANXA1sp treatment is also associated with reduced acetylation of NF-κB p65 subunit (at lysine 310 residue) following DHCA in rats. Rats underwent 1 hour DHCA at 18° C. and received either vehicle or ANXA1sp (2 mg/kg, iv) followed by 6 hours reperfusion. Levels of acetylated NF-κB p65 were determined in left ventricular myocardium tissue lysates by Western blot. Results presented as mean±SD (n=4), *p<0.001. DHCA, deep hypothermic circulatory arrest; P65-Ac(K310), lysine 310 acetylated NF-κB p65 subunit. GAPDH used as loading control.
(§5) Separate groups of animals underwent 60 minutes of DHCA (18° C.) with a similar treatment design, with animals randomly assigned to sham, CPB/DHCA (Vehicle), DHCA+ANXA1sp (ANXA1sp), or DHCA+scrambled peptide (scrPEP). All rats were subjected to 60 minutes DHCA at 18° C. and received either vehicle (1% DMSO saline), ANXA1sp (total 2 mg/kg), or scrPEP (total 2 mg/kg) iv 1 h before CPB and 1 h after reperfusion (FIG. 10C). Sham operated animals were only cannulated/without CPB/DHCA as baseline control. At 3, 6, and 24 h of post-perfusion, heart and serum samples were harvested. Blood samples were collected and stored at −80° C. until analysis. A small portion of heart tissue from each animal was immediately fixed in 10% buffered formalin, embedded in paraffin, and sectioned for immunostaining, confocal colocalization microscopy, and apoptotic TUNEL staining. Myocardial whole-tissue lysates were obtained at the end of each experiment according to the manufacturer's protocol (Affymetrix). The remaining heart tissues were stored at −80° C. FIG. 10 depicts a diagram of the rat surgical model and schematics of the experimental protocols.

[7] = tested on: rats rendered acutely hyperglycemic, cardioplegic arrest; assay: Rat CPB/CA model in acutely hyperglycemic rats; type: in vivo; conditions: blood glucose>300 mg/dl, Dextrose 25%, 5 gm/kg
Procedure: Because of the known effects of hyperglycemia to blunt cardioprotective mechanisms, the effects of ANXA1sp were further tested in rats rendered acutely hyperglycemic (blood glucose>300 mg/dl) through perioperative administration of Dextrose (25%, 5 gm/kg). […] Physiological parameters during the conduct of CPB/CA were similar between treatment groups.

[8] = tested on: reactive oxygen species; assay: Reactive oxygen species in hearts of DHCA rats (ELISA); type: in vivo, rat; conditions: 60 min DHCA, 6 h reperfusion
Procedure: as §1, §2

[9] = tested on: SIRT3; assay: Myocardial SIRT3 in DHCA rats (Western blot, confocal microscopy); type: in vivo, rat; conditions: for Expression (44-kDa) and activation (28-kDa) of myocardial SIRT3: 60 min DHCA at 18° C., 2 mg/kg iv, 3 hours post-perfusion, p<0.05 vs vehicle; for SIRT3 level and mitochondrial localization in rat myocardium (confocal): 60 min DHCA, 3 h reperfusion
Procedure: as §4, §5
Confocal studies were performed as described previously. Paraffin sections were deparaffinized using xylene and descending grades of ethanol, pretreated with microwave irradiation (350 W, for 5 min in 200 ml of 0.1M Citrate buffer, pH 6.0). Tissue sections were incubated with rabbit monoclonal IgG anti-SIRT3 (Cell Signaling) and mouse monoclonal IgG anti-COXIV (Cell Signaling) at 4° C. overnight. After washing, tissue sections were incubated with Alexa555 conjugated donkey anti-mouse IgG and Alexa488 conjugated goat anti-rabbit IgG (Molecular Probes) for 1 h at RT. Images were acquired with a confocal microscope (Zeiss Invert 510 Microscope). The control experiments were performed using mouse IgG and/or rabbit IgG.

[10] = tested on: rats, deep hypothermic circulatory arrest; assay: Rat model of deep hypothermic circulatory arrest (DHCA), myocardial injury; type: in vivo; conditions: 60 min DHCA
Procedure: as §5
The following endpoints were assessed: plasma cTnI and heart-type fatty acid binding protein (HFABP, ELISA, Life Diagnosis); myocardial apoptosis as levels of cleaved caspase-3 (Western blot) and TUNEL assays (Roche); and echocardiographic left ventricular function. Myocardial levels of TNFα, IL-6, and myeloperoxidase (MPO) were analyzed by ELISA. SIRT3 and cytochrome c were measured in isolated mitochondria by Western blot.
Blood samples were collected from each rat at 24 h after CPB/DHCA. […] Cellular levels of ATP were measured by ELISA (Abeam).
TUNEL assay was performed using the In Situ Cell Death Detection Kit (Roche Molecular Biochemicals) according to manufacturer's protocol. […] The reaction was terminated with stop solution and fluorescent apoptotic signal was detected using a fluorescence microscope (Zeiss LSM 510 inverted confocal). Ten fields of each tissue section were randomly chosen and a total of 50 cells per field were counted. […]

[11] = tested on: AMP-activated protein kinase (AMPK); assay: AMPK phosphorylation in myocardium of DHCA rats; type: in vivo, rat; conditions: 60 min DHCA, 3 h reperfusion
Procedure: (§6) FIG. 16. […] Results presented as mean±SD (n=5), *P<0.05 and ^#P<0.01. P-AMPK, phosphorylated AMPK. GAPDH used as loading control.
as §5

[12] = tested on: cellular levels of ATP; assay: Cellular ATP levels in ARVCs after OGD/reoxygenation; type: cell-based, rat
Procedure: as §3
(§7) Blood samples were collected from each rat at 24 h after CPB/DHCA. Samples were immediately cooled to 4° C. and centrifuged at 3,000 rpm for 10 minutes at 4° C. Serum was collected and stored at −80° C. until assay. Whole cell lysate from heart tissues was obtained according to manufacturer's instruction (Panomics) and used for measurement of pro-inflammatory cytokines IL-6, TNFα and MPO by an ELISA method (Thermo Scientific). Cellular levels of ATP were measured by ELISA (Abeam).

[13] = tested on: SIRT3; assay: SIRT3 expression in ARVCs after OGD/reoxygenation (Western blot, confocal microscopy); type: cell-based, rat
Procedure: as §3, §4
Confocal studies were performed as described previously. MitoTraker Deep Red FM (Invitrogen) was added into culture medium to make the final concentration of 0.4 μM and incubated at 37° C. for 45 min. After being washed, fixed, permeabilized, and blocked, rabbit monoclonal IgG anti-SIRT3 (Abcam) was added at 4° C. for overnight. Cells were subsequently incubated with Alexa-488 conjugated goat anti-rabbit IgG (Molecular Probes) for 1 h at RT. Images were acquired with a confocal microscope (Zeiss Invert 510 Microscope).

[14] = tested on: adult rat ventricular cardiomyocytes with SIRT3 siRNA; assay: siRNA knock-down of SIRT3 in ARVCs with simulated IR, rescue; type: cell-based; conditions: simulated ischemia-reperfusion
Procedure: ARVC siRNA transfection: after 24 h of incubation with AW Medium (Cellutron Cat #M-8034) without antibiotics, ARVCs were transfected with a specific SIRT3-siRNA or a scrambled RNA (scrRNA) as control, according to manufacturer's protocol (Santa Cruz). Transfection efficiency was estimated by Western blotting of the target protein (A). ARVC, adult rat ventricular cardiomyocytes; OGD, oxygen-glucose deprivation; scrR, scrambled RNA; siR, SIRT3 siRNA; SP, ANXA1sp; V, vehicle control; scrR+V, scramble RNA with vehicle control; scrR+SP, scramble RNA with ANXA1sp; siR+V, SIRT3 siRNA with vehicle control; siR+SP, SIRT3 siRNA with ANXA1sp; cTnI, cardiac troponin I measured in supernatant. Results presented as mean±SD (n=3). GAPDH used as loading control.

[15] = tested on: myocardial levels of ATP; assay: Myocardial ATP levels in DHCA rats; type: in vivo, rat; conditions: 60 min DHCA, 3 h reperfusion
Procedure: as §6, §7

Substance: Ac-Ala-Met-Val-Ser-Glu-Phe-Leu-Lys-Gln-Ala-Trp-Phe-Ile-Glu-Asn-Glu-Glu-Gln-Glu-Tyr-Val-Gln-Tyr-Val-Lys (Ac-AMVSEFLKQAWFIENEEQEYVQYVK) [Ac2-26, 25mer peptide derived from annexin 1, commercially available]
- Post-ischemic recovery of ventricular contractile function [1]: improves post-ischemic recovery of ventricular contractile function
- Neutrophil dependent myocardial necrosis [2]: inhibits neutrophil dependent myocardial necrosis

Substance: Ac-Gln-Ala-Trp [ANXA1sp]
- Protein acetylation in myocardial tissue homogenates [3]: significant reduction of protein acetylation
- Protein acetylation [4]: significant reduction in protein acetylation
- Phosphorylation of AMPK [5]: increased phosphorylation of AMPK
- Acetylation of NF-κB p65 (K310) ([6]; 1 hour DHCA, 2 mg/kg iv, 6 hours reperfusion): attenuated acetylation of NF-kB p65
- NF-κB transcriptional activity ([6]; DHCA rats): suppressed NF-κB transcriptional activity
- NF-κB-mediated gene expression of TNFα ([6]; DHCA rats): significantly down-regulated
- Hyperglycemic exacerbation of myocardial injury and inflammation [7]: significantly attenuated
- Cellular levels of reactive oxygen species in hearts [8]: decreased cellular levels of reactive oxygen species
- Expression (44-kDa) and activation (28-kDa) of myocardial SIRT3 [9]: significantly restored expression and activation of SIRT3
- SIRT3 level and mitochondrial localization in rat myocardium (confocal) [9]: robustly increased SIRT3 and was predominantly localized in the mitochondria
- Cleaved caspase-3 activity by Western blot [10]: significantly decreased
- Myocardial apoptosis by TUNEL staining ([10]; 24 h post-reperfusion): significantly decreased myocardial apoptosis
- Serum cTnI (ELISA) ([10]; multiple reperfusion time points): significantly decreased
- Phosphorylation of AMPK (P-AMPK) in left ventricular myocardial lysates [11]: increased phosphorylation of AMP-activated protein kinase
- ATP concentrations [12]: increased ATP concentrations
- SIRT3 full-length and short form proteins in cell lysates ([13]; ARVCs after OGD/reoxygenation, Western blot): significantly increased SIRT3 in both full-length and short form proteins
- SIRT3 expression in isolated mitochondria ([13]; ARVCs subjected to OGD): increased SIRT3 expression in isolated mitochondria
- SIRT3 in mitochondria by confocal microscopy ([13]; cultured ARVCs, 10 μM, 2 h OGD, 3 h reoxygenation): significantly increased in mitochondria
- Rescue of increased cell necrosis and apoptosis after SIRT3 knock down [14]: partially rescued
- Myocardial levels of ATP [15]: increased myocardial levels of ATP

Substance: Ac-W^10Q^11A^12 [scrPEP, reference compound]
- Expression (44-kDa) and activation (28-kDa) of myocardial SIRT3 [9]: had no such effects
- SIRT3 level and mitochondrial localization in rat myocardium (confocal) [9]: has no such effects
